# pIC50: −log10 of the molar value.
# Target: T1, human TRPV3 (Homo sapiens, UniProt Q8NET8)
# T1 construct: expressed in transfected cells; host or cells: HEK293
# T1 sequence (Q8NET8 1-790): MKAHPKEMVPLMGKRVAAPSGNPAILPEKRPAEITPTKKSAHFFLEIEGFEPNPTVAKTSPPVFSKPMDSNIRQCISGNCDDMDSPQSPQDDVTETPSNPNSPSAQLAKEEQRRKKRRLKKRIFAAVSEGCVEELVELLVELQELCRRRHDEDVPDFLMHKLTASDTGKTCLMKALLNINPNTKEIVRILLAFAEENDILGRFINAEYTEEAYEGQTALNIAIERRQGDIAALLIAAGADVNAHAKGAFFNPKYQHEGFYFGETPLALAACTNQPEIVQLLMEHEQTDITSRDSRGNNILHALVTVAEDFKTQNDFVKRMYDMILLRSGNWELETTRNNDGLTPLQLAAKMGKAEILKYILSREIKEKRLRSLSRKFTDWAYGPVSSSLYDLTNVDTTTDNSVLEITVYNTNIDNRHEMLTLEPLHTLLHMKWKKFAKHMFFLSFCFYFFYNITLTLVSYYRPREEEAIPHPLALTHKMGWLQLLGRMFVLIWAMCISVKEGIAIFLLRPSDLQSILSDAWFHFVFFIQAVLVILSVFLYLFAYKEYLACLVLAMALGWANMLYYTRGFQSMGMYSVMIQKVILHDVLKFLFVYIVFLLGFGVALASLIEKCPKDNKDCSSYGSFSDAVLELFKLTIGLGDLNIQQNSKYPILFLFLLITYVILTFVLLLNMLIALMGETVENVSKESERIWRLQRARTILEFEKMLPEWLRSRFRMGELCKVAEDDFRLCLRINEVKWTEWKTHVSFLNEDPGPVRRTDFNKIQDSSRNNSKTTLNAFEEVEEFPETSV
# Test: Calcium flux assay (FLIPR TETRA), recombinant HEK293 cells expressing TRPV3, 2-APB response
# Format: cell-based
# Settings: 2-APB at its EC80
# Method in brief: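 HEK293 cells stably expressing human or mouse TRPV3, loaded with Calcium-4 dye for 90–120 min, read on FLIPR TETRA. Peak fluorescence rise over baseline expressed as percent of the maximal response to 2-APB at its EC80 without compound.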
row,SMILES,pIC50
1,"COc1ncnc(OC)c1C(=O)Nc1nc(C(F)(F)F)c(-c2ccccn2)s1 [Example 45, 4,6-dimethoxy-N-[5-(pyridin-2-yl)-4-(trifluoromethyl)-1,3-thiazol-2-yl]pyrimidine-5-carboxamide]",6.30 to 7.00
2,"COc1ncnc(OC)c1C(=O)Nc1nc(C(F)(F)F)c(Cl)s1 [Example 63, N-[5-chloro-4-(trifluoromethyl)-1,3-thiazol-2-yl]-4,6-dimethoxypyrimidine-5-carboxamide]",> 7.30
3,"COc1ncnc(OC)c1C(=O)Nc1nc(-c2ccc(C(F)(F)F)cn2)c(C)s1 [Example 95, 4,6-dimethoxy-N-{5-methyl-4-[5-(trifluoromethyl)pyridin-2-yl]-1,3-thiazol-2-yl}pyrimidine-5-carboxamide]",> 7.30
4,"COc1ncnc(OC)c1C(=O)Nc1nc(C(F)(F)F)c(/C(C)=N/O)s1 [Example 134, N-{5-[(1E)-N-hydroxyethanimidoyl]-4-(trifluoromethyl)-1,3-thiazol-2-yl}-4,6-dimethoxypyrimidine-5-carboxamide]",6.30 to 7.00
5,"COc1ncnc(OC)c1C(=O)Nc1nc(C(F)(F)F)c(CCC(C)(C)O)s1 [Example 20, N-[5-(3-hydroxy-3-methylbutyl)-4-(trifluoromethyl)-1,3-thiazol-2-yl]-4,6-dimethoxypyrimidine-5-carboxamide]",6.00 to 6.30
6,"COc1ncnc(O)c1C(=O)Nc1nc(-c2ccc(C(F)(F)F)cn2)c(C(=O)N(C)C)s1 [Example 79, N-{5-(dimethylcarbamoyl)-4-[5-(trifluoromethyl)pyridin-2-yl]-1,3-thiazol-2-yl}-4-hydroxy-6-methoxypyrimidine-5-carboxamide]",< 6.00
7,"COc1ncnc(OC)c1C(=O)Nc1nc(C2CCC(F)(F)CC2)cs1 [Example 99, N-[4-(4,4-difluorocyclohexyl)-1,3-thiazol-2-yl]-4,6-dimethoxypyrimidine-5-carboxamide]",6.30 to 7.00
8,"COc1ncnc(OC)c1C(=O)Nc1nc(C(F)(F)F)c(-c2cc3ncccc3o2)s1 [Example 187, N-[5-(furo[3,2-b]pyridin-2-yl)-4-(trifluoromethyl)-1,3-thiazol-2-yl]-4,6-dimethoxypyrimidine-5-carboxamide]",6.30 to 7.00
9,"COc1ncnc(OC)c1C(=O)Nc1nc(C(F)(F)F)c(S(=O)(=O)c2ccc(C)cc2)s1 [Example 110, 4,6-dimethoxy-N-[5-(p-tolylsulfonyl)-4-(trifluoromethyl)-1,3-thiazol-2-yl]pyrimidine-5-carboxamide]",6.30 to 7.00
10,"COc1ncnc(OC)c1C(=O)Nc1nc(C(C)(C)C)c(F)s1 [Example 100, N-(4-tert-butyl-5-fluoro-1,3-thiazol-2-yl)-4,6-dimethoxypyrimidine-5-carboxamide]",> 7.30
11,"COc1ncnc(OC)c1C(=O)Nc1nc(C(F)(F)F)c(CN2CCCC2)s1 [Example 49, 4,6-dimethoxy-N-[5-(pyrrolidin-1-ylmethyl)-4-(trifluoromethyl)-1,3-thiazol-2-yl]pyrimidine-5-carboxamide]",6.00 to 6.30
12,"COc1cc(C#N)ccc1-c1sc(NC(=O)c2c(OC)ncnc2OC)nc1C(F)(F)F [Example 43, N-[5-(4-cyano-2-methoxyphenyl)-4-(trifluoromethyl)-1,3-thiazol-2-yl]-4,6-dimethoxypyrimidine-5-carboxamide]",> 7.30
13,"COc1ncnc(OC)c1C(=O)Nc1nc(C(F)(F)F)c(C2CC(C(C)C)=NO2)s1 (centres unmarked) [Example 170, 4,6-dimethoxy-N-{5-[3-(propan-2-yl)-4,5-dihydro-1,2-oxazol-5-yl]-4-(trifluoromethyl)-1,3-thiazol-2-yl}pyrimidine-5-carboxamide]",6.30 to 7.00
14,"COc1ncnc(OC)c1C(=O)Nc1nc(COc2ccccc2C)cs1 [Example 179, 4,6-dimethoxy-N-{4-[(2-methylphenoxy)methyl]-1,3-thiazol-2-yl}pyrimidine-5-carboxamide]",6.30 to 7.00
15,"COc1ncnc(OC)c1C(=O)Nc1nc(C(F)(F)F)c([C@@H]2CCCOC2)s1 (single isomer, unassigned) [Example 150]",6.30 to 7.00
16,"COc1ncnc(OC)c1C(=O)Nc1nc(CCc2ccc(F)cc2)cs1 [Example 107, N-{4-[2-(4-fluorophenyl)ethyl]-1,3-thiazol-2-yl}-4,6-dimethoxypyrimidine-5-carboxamide]",6.00 to 6.30

row,SMILES,pIC50
1,"COc1ncnc(OC)c1C(=O)Nc1nc(C(F)(F)F)c(-c2cccc(C3(C#N)COC3)n2)s1 [Example 154, N-{5-[6-(3-cyanooxetan-3-yl)pyridin-2-yl]-4-(trifluoromethyl)-1,3-thiazol-2-yl}-4,6-dimethoxypyrimidine-5-carboxamide]",7.00 to 7.30
2,"COc1ncnc(OC)c1C(=O)Nc1nc(-c2ccc(C(F)(F)F)cn2)c(C(C)O)s1 (single isomer, unassigned) [Example 83, N-{5-[(1R*)-1-hydroxyethyl]-4-[5-(trifluoromethyl)pyridin-2-yl]-1,3-thiazol-2-yl}-4,6-dimethoxypyrimidine-5-carboxamide]",6.30 to 7.00
3,"CO/N=C(\c1ccccc1)c1sc(NC(=O)c2c(OC)ncnc2OC)nc1C(F)(F)F [Example 125, 4,6-dimethoxy-N-{5-[(E)-(methoxyimino)(phenyl)methyl]-4-(trifluoromethyl)-1,3-thiazol-2-yl}pyrimidine-5-carboxamide]",> 7.30
4,"COc1ncnc(OC)c1C(=O)Nc1nc(/C=C/c2ccc(F)cc2)cs1 [Example 106, N-{4-[(E)-2-(4-fluorophenyl)ethenyl]-1,3-thiazol-2-yl}-4,6-dimethoxypyrimidine-5-carboxamide]",6.00 to 6.30
5,"COc1ncnc(OC)c1C(=O)Nc1nc(-c2ccc(C(F)(F)F)cn2)c(C#N)s1 [Example 97, N-{5-cyano-4-[5-(trifluoromethyl)pyridin-2-yl]-1,3-thiazol-2-yl}-4,6-dimethoxypyrimidine-5-carboxamide]",7.00 to 7.30
6,"COc1ncnc(SC)c1C(=O)Nc1nc(C(F)(F)F)c(-c2ccccc2C#N)s1 [Example 159, N-[5-(2-cyanophenyl)-4-(trifluoromethyl)-1,3-thiazol-2-yl]-4-methoxy-6-(methylsulfanyl)pyrimidine-5-carboxamide]",> 7.30
7,"COc1ncnc(OC)c1C(=O)Nc1nc(C(F)(F)F)c(C#C[Si](C)(C)C)s1 [Example 10, 4,6-dimethoxy-N-{4-(trifluoromethyl)-5-[(trimethylsilyl)ethynyl]-1,3-thiazol-2-yl}pyrimidine-5-carboxamide]",> 7.30
8,"COc1ncnc(OC)c1C(=O)Nc1nc(C(F)(F)F)c(-c2cnccn2)s1 [Example 28, 4,6-dimethoxy-N-[5-(pyrazin-2-yl)-4-(trifluoromethyl)-1,3-thiazol-2-yl]pyrimidine-5-carboxamide]",6.00 to 6.30
9,"COc1ncnc(OC)c1C(=O)Nc1nc(C(F)(F)F)c(CN2CCC3(CC2)COC3)s1 [Example 61, 4,6-dimethoxy-N-[5-(2-oxa-7-azaspiro[3.5]non-7-ylmethyl)-4-(trifluoromethyl)-1,3-thiazol-2-yl]pyrimidine-5-carboxamide]",6.30 to 7.00
10,"CCn1cc(-c2sc(NC(=O)c3c(OC)ncnc3OC)nc2C(F)(F)F)cn1 [Example 177, N-[5-(1-ethyl-1H-pyrazol-4-yl)-4-(trifluoromethyl)-1,3-thiazol-2-yl]-4,6-dimethoxypyrimidine-5-carboxamide]",6.30 to 7.00
11,"COc1ncnc(OC)c1C(=O)Nc1nc(C(F)(F)F)c([S+]([O-])Cc2ccccc2)s1 (centres unmarked) [Example 112, N-(5-(benzylsulfinyl)-4-(trifluoromethyl)thiazol-2-yl)-4,6-dimethoxypyrimidine-5-carboxamide]",< 6.00
12,"COc1cc(F)ccc1-c1csc(NC(=O)c2c(OC)ncnc2OC)n1 [Example 108, N-[4-(4-fluoro-2-methoxyphenyl)-1,3-thiazol-2-yl]-4,6-dimethoxypyrimidine-5-carboxamide]",6.30 to 7.00
13,"COc1ncnc(OC)c1C(=O)Nc1nc(/C=C/C2CC2)cs1 [Example 103, N-{4-[(E)-2-cyclopropylethenyl]-1,3-thiazol-2-yl}-4,6-dimethoxypyrimidine-5-carboxamide]",< 6.00
14,"COc1ncnc(OC)c1C(=O)Nc1nc(C(F)(F)F)c(-c2ccc(CN3CCOCC3)cc2)s1 [Example 198, 4,6-dimethoxy-N-{5-[4-(morpholin-4-ylmethyl)phenyl]-4-(trifluoromethyl)-1,3-thiazol-2-yl}pyrimidine-5-carboxamide]",> 7.30
15,"COc1ncnc(OC)c1C(=O)Nc1nc(C(F)(F)F)c(C2=CCN(S(C)(=O)=O)CC2)s1 [Example 165, 4,6-dimethoxy-N-{5-[1-(methylsulfonyl)-1,2,3,6-tetrahydropyridin-4-yl]-4-(trifluoromethyl)-1,3-thiazol-2-yl}pyrimidine-5-carboxamide]",6.00 to 6.30
16,"COc1ncnc(OC)c1C(=O)Nc1nc(-c2ccc(C(F)(F)F)cn2)c(C=O)s1 [Example 76, N-{5-formyl-4-[5-(trifluoromethyl)pyridin-2-yl]-1,3-thiazol-2-yl}-4,6-dimethoxypyrimidine-5-carboxamide]",6.30 to 7.00

# Source: patent US20180243298A1, “TRPV3 MODULATORS” (AbbVie Inc., priority 2015, published 2018)
